This is an account of results in patent publication US20200397816A1, “METHODS TO TREAT INFLAMMATORY AND SMOOTH MUSCLE CELL PROLIFERATION DISORDERS” (THE TRUSTEES OF INDIANA UNIVERSITY, priority 2019, published 2020).

In one experiment the test system is pSTAT3 (Y705). Nature of the experiment: EMAP II induced pSTAT3 western blot in RAW 264.7 macrophages. Format: cell-based, mouse. The conditions noted are these: RAW 264.7 macrophages, EMAP II 24 hours. On the procedure:
(§1) After appropriate treatments, protein lysates were prepared by using RIPA buffer supplemented with phosphatase and protease inhibitors (Thermo Fischer Scientific). Alpha-tubulin was used as a loading control. For nuclear and cytoplasmic fractionation, NE-PER kit from Thermo Fischer Scientific was used. Western blots were performed according to standard methods and quantified using densitometry using Image Studio Lite software from LI-COR Biosciences.
After appropriate treatments, protein lysates were prepared by using RIPA buffer supplemented with phosphatase and protease inhibitors (Thermo Fisher Scientific). Alpha-tubulin was used as a loading control. For nuclear and cytoplasmic fractionation, NE-PER kit from Thermo Fischer Scientific was used. Western blots were performed according to standard methods and quantified using densitometry using Image Studio Lite software from LI-COR Biosciences.

The subject of experiment [1] is EGR1. Nature of the experiment: EGR1 protein western blot and immunofluorescence in hPASMC. Format: cell-based, human. The following applies: SMCs (hPASMC); MEK inhibitor 10 μM; EMAP II 1 hour. As for the experimental part: (§2) RAW 264.7 (ATCC) mouse macrophages and Human Embryonic Kidney (HEK) 293T cells were cultured in DMEM media with 10% fetal bovine serum […] and glutamine HEPES buffer and beta-mercaptoethanol were added to the growth medium used for RAW 264.7 macrophages. Primary human pulmonary artery smooth muscle cells (hPASMC) purchased from Lonza (Walkersville, Md.) were cultured in complete growth medium containing smooth muscle growth media-2 (SmGM-2) with 10% FBS and growth factors provided as a kit by the supplier (Lonza, (Walkersville, Md.). THP-1 human monocyte cells were cultured in RPMI 1640 with 10% FBS and glutamine Cells were cultured in a humidified atmosphere with 5% CO2 at 370 C. For all studies passages 5-14 were used for RAW 264.7 and passages 5-10 were used for hPASMCs. For treatment studies, subconfluent cells plated in multi-well plates were serum starved and if required, pretreated for with inhibitors before stimulating with 2 μg/mL recombinant EMAP II.
as §1
Primary hPASMCs cells or human THP-1 macrophages were seeded in Nunc Lab-Tek™ II 4-well imaging plates (Thermo Fisher Scientific) chamber well slides and cultured in growth medium. After the serum starvation cells were stimulated with EMAP II. Treated cells were rinsed with PBS and fixed with 4% paraformaldehyde at room temperature for 15 min and permeabilized with 0.1% Triton X-100 at room temperature for 10 min After washing with PBS three times, the cells were incubated with EGR1, 1amin, or pSphK1 antibody at 40C overnight. The cells were then rinsed with PBS three times and subsequently incubated with respective secondary antibody conjugated with Alex Fluor 647 and 488 or Phalloidin 488 at room temperature for 1 h. The cells were rinsed with PBS three times and coverslips were mounted with SlowFade Gold Antifade Mountant with DAPI (Thermo Fischer Scientific) and the cells were examined under Olympus microscope with 40× for EGR1 expression and with 60× for pSphK1 water immersion.
Knockdown of endogenous EGR1 was carried out by transfecting with 25 nM final concentration of ON-TARGETplus siRNAs specific for EGR1 or non-targeting control purchased from GE Dharmacon (Lafayette,CO) using Viromer Blue (Lipocalyx) per manufacturer's instructions. Cells were stimulated with EMAP II 48 h post-transfection.
RAW 264.7 (ATCC) mouse macrophages and HEK-293T (ATCC) cells were cultured in DMEM media with 10% (v/v) fetal bovine serum (FBS) and 2 mM glutamine HEPES buffer and beta-mercaptoethanol were added to the growth medium used for RAW 264.7 macrophages. […]
(In western blotting, separated proteins are transferred to a membrane and probed.)

Experiment [2] relates to EGR1. Nature of the experiment: EGR1 protein western blot (whole cell lysates, nuclear fractions) in RAW 264.7 macrophages. The class given is cell-based, mouse. The following applies: macrophages (RAW 264.7); MEK inhibitor 10 μM; EMAP II 2 hours. As for the experimental part: as §2, §1
RAW 264.7 (ATCC) mouse macrophages and HEK-293T (ATCC) cells were cultured in DMEM media with 10% (v/v) fetal bovine serum (FBS) and 2 mM glutamine HEPES buffer and beta-mercaptoethanol were added to the growth medium used for RAW 264.7 macrophages. Primary human pulmonary artery smooth muscle cells (hPASMC) purchased from Lonza (Walkersville, Md.) were cultured in complete growth medium containing smooth muscle growth media-2 (SmGM-2) with 10% FBS and growth factors provided as a kit by the supplier (Lonza, (Walkersville, Md.). THP-1 human monocyte cells were cultured in RPMI 1640 with 10% FBS and glutamine Cells were cultured in a humidified atmosphere with 5% CO2 at 37° C. For all studies passages 5-14 were used for RAW 264.7 and passages 5-10 were used for hPASMCs. For treatment studies, subconfluent cells plated in multi-well plates were serum starved and if required, pretreated with inhibitors before stimulation with 2 μg/mL recombinant EMAP II.
After appropriate treatments, protein lysates were prepared by using RIPA buffer supplemented with phosphatase and protease inhibitors (Thermo Fisher Scientific). Alpha-tubulin was used as a loading control. […] Western blots were performed according to standard methods and quantified using densitometry using Image Studio Lite software from LI-COR Biosciences.

For experiment [3], the system named is EGR1. Nature of the experiment: EGR1 transcripts qRT-PCR in RAW 264.7 macrophages. The class given is cell-based, mouse. The conditions noted are these: 10 μM pretreatment, EMAP II 45 minutes, normalized against Hprt1. On the procedure:
(§3) RAW 264.7 (ATCC) mouse macrophages and Human Embryonic Kidney (HEK) 293T cells were cultured in DMEM media with 10% fetal bovine serum […] and glutamine HEPES buffer and beta-mercaptoethanol were added to the growth medium used for RAW 264.7 macrophages. […]
(§4) Total RNA was extracted with TriZol using standard RNA extraction protocol and reverse transcribed with SuperScript III Reverse Transcriptase (Thermo Fischer Scientific). SphK1, Tnf, Il6, EGR1, Gapdh, Hprt1 transcripts were quantified using PrimePCR SYBR Green assays from BioRad. […]
(§5) Total RNA was extracted with TriZol using standard RNA extraction protocol and reverse transcribed with SuperScript III Reverse Transcriptase (Thermo Fisher Scientific). SPHK1, Tnf, Il6, EGR1, Gapdh, Hprt1 transcripts were quantified using PrimePCR SYBR Green assays from BioRad.
For orientation: In qPCR the cycle at which signal appears reflects the starting amount.

Experiment [4] concerns EGR1. Nature of the experiment: EGR1 transcripts qRT-PCR in hPASMC. The class given is cell-based, human. The following applies: SMCs; 10 μM pretreatment; EMAP II 45 minutes; normalized against Gapdh. As for the experimental part:
as §3, §4, §5

Experiment [5] relates to STAT3 transcription reporter plasmid. Nature of the experiment: STAT3 transcription reporter luciferase assay in HEK293-T cells. The class given is cell-based, human. The conditions noted are these: inhibitor pretreatment 1 hour, luciferase after 24 hours. As for the experimental part:
Transfection and luciferase assay. Human Embryonic Kidney (HEK) 293-T cells cultured in DMEM media containing 10% serum were reverse co-transfected with pGL4.47fluc2P/SIE/Hygrol and pGL4.74 [hRluc/TK] using Attractene Transfection Reagent (301005, Qiagen) as per manufacturer's protocol. Pretreated with inhibitors for 1 hour as required. After the treatment cells were incubated for 24 hours and luciferase activity was measured using Dual-Glo Luciferase Assay (E2920, Promega) per manufacturer's guidelines.
HEK 293-T cells cultured in DMEM media containing 10% serum were reverse co-transfected with pGL4.47fluc2P/SIE/Hygrol and pGL4.74 [hRluc/TK] using Attractene Transfection Reagent (301005, Qiagen) as per manufacturer's protocol. Pretreated with inhibitors for 1 hour as required. After the treatment cells were incubated for 24 hours and luciferase activity was measured using Dual-Glo Luciferase Assay (E2920, Promega) per manufacturer's guidelines.

As for `Cc1nn(C)c2nc(NNC(=O)Nc3cc(Cl)nc(Cl)c3)cc(C(C)C)c12` [iS1PR2, JTE 013], the “EMAP II induced pSTAT3 (pSTAT3/STAT3)” value with pSTAT3 (Y705) (inhibitor pretreatment 1 μM) is “significantly inhibited”.
`O=C(NOCC1CC1)c1cc(Br)c(F)c(F)c1Nc1ccc(I)cc1Cl` [iERK, PD184161, reference compound]: the “EMAP II induced pSTAT3 (pSTAT3/STAT3)” value in the experiment with pSTAT3 (Y705) (inhibitor pretreatment 10 μM) is on record as “significantly inhibited”. In addition, the “EMAP II induced EGR1 protein expression” value in the experiment with EGR1 [1] and in the experiment with EGR1 [2] was “blocked” in each case.
As for `CC(=O)Nc1cccc(-n2c(=O)n(C3CC3)c(=O)c3c(Nc4ccc(I)cc4F)n(C)c(=O)c(C)c32)c1` [iERK1, Trametinib, reference compound], the “EMAP II induced EGR1 transcription” value in the experiment on EGR1 [3] and with EGR1 [4] was “inhibited” throughout. The “EMAP II induced EGR1 protein expression” value with EGR1 [1] and in the experiment on EGR1 [2] was “blocked” in each case.
`Cc1cc(CS(=O)(=O)c2ccccc2)cc(OCc2ccc(CN3CCC[C@@H]3CO)cc2)c1` [iSphK1, PF543]: the “EMAP II induced pSTAT3 (pSTAT3/STAT3)” value is “significantly inhibited” with pSTAT3 (Y705) (inhibitor pretreatment 100 nM); “inhibited” with pSTAT3 (Y705) (inhibitor pretreatment 100 nM, listed as PF543); “significantly inhibited” in the experiment with pSTAT3 (Y705) (inhibitor pretreatment 100 nM, listed as iSPHK1). Further, in experiment [5], the “EMAP II induced luminescence of STAT3 transcription reporter plasmid” value is given as “significantly inhibited”.
In the case of `CC(C)(C)C(=O)/C(=N/c1ccc(Cl)cc1)NNc1ccc(Cl)cc1` [iS1PR3, TY 52156], in the experiment with pSTAT3 (Y705) (inhibitor pretreatment 1 μM), the “EMAP II induced pSTAT3 (pSTAT3/STAT3)” value is “significantly inhibited”.
For the compound `N#CC[C@H](C1CCCC1)n1cc(-c2ncnc3[nH]ccc23)cn1` [iJAK1/2, Ruxolitinib], the “EMAP II induced pSTAT3 (pSTAT3/STAT3)” value with pSTAT3 (Y705) (inhibitor pretreatment 1 μM) is given as “significantly inhibited”.
For the compound `CCCCCCc1cccc(NC(=O)[C@H](N)CCP(=O)(O)O)c1` [iS1PR1, W146], the “EMAP II induced pSTAT3 (pSTAT3/STAT3)” value in the experiment on pSTAT3 (Y705) (inhibitor pretreatment 1 μM) is reported as “significantly inhibited”.
